Assay results taken from patent US20030138419A1, “Recombinant antibody fusion proteins and methods for detection of apoptotic cells” (The University of Tennessee Research Corporation, priority 2001, published 2003).
Residues, ends and D or L forms follow the SMILES beside them. *: point of attachment. Cbz = O=C(OCc1ccccc1)*; CH2F = FC*

Columns and labels:
apoptotic Jurkat cells = assay: Confocal immunofluorescence microscopy of scFv and annexin V binding to apoptotic Jurkat cells; assay type: cell-based
Description: (§1) Jurkat cells were harvested from culture and resuspended at a density of 10^6 /ml in RPMI 1640 containing 10% fetal bovine'serum (FBS). Apoptosis was induced for 12 hours with 1.0 μM staurosporine (Sigma Chemical Co. of St. Louis, Mo.), 2.0 μM camptothecin (Sigma), or 2.0 μg/ml anti-Fas antibody (clone 7C11; Beckman Coulter Inc. of Brea, Calif.). To inhibit apoptosis, parallel cultures were pre-incubated for 2 hours with 20 μM z-Val-Ala-Asp(Ome)-fluoromethylketone (z-VAD(Ome)-FMK) (Enzyme System Products of Livermore, Calif.). To inhibit membrane blebbing, parallel cultures were pre-incubated for 2 hours with 10 μM Y-27632 (Tocris of Ballwin, Mo.). At the end of the incubation period, 5×10^5 cells were aliquoted into tubes and stained for flow cytometry or confocal microscopy.
Cells were washed with HBSS and fixed with ice-cold 4% paraformaldehyde for 10 minutes. […] After incubation with the scFv, cells were washed once with HBSS/FBS and incubated with biotinylated annexin V (BD Biosciences) for 15 minutes on ice. Cells were then washed twice with HBSS/FBS and stained with streptavidin-conjugated Alexaflour 488 (Molecular Probes), Rhodamine Red-conjugated human serum IgG (Jackson Immunoresearch Laboratories) and the nucleic acid dye TO-PRO-3 (Molecular Probes). Following staining for 15 minutes on ice, cells were washed with HBSS/FBS and mounted onto poly-L-lysine-coated glass slides for viewing with a Zeiss LSM 510 laser scanning microscope (Carl Zeiss, Inc. of Thorwood, N.Y.).
Cells were washed with HBSS and fixed with ice-cold 4% paraformaldehyde for 10 minutes. […] After incubation with the scFv, cells were washed once with HBSS/FBS and incubated with biotinylated annexin V (BD Biosciences) for 15 minutes on ice. Cells were washed twice with HBSS/FBS and stained with streptavidin-conjugated Alexaflour 488 (Molecular Probes), Rhodamine Red-conjugated human serum IgG (Jackson Immunoresearch Laboratories) and the nucleic acid dye TO-PRO-3 (Molecular Probes). After a 15 minute incubation on ice, cells were washed with HBSS/FBS and mounted onto poly-L-lysine-coated glass slides for viewing with a Zeiss LSM 510 laser scanning microscope (Carl Zeiss Inc., Thorwood, N.Y.).

Jurkat cells = assay: Flow cytometry of annexin V and scFv binding to Jurkat cells treated with staurosporine, camptothecin or anti-Fas (12 hr); assay type: cell-based
Description: as §1
Cells were washed with 4.0 ml of ice-cold Hanks Balanced Salt Solution (Mediatech, Herndon, Va.) containing 1.0 mM CaCl2, 3% FBS, and 0.02% NaN3 (HBSS/FBS). […] 30,000 events were examined per sample on a FACSCalibur (BD Biosciences). The staining profiles were analyzed using FLOWJO™ software (Treestar, Inc. of San Carlos, Calif.).

C[C@@H](N)[C@H]1CC[C@H](C(=O)Nc2ccncc2)CC1 [Y-27632]
effect on binding of annexin V (apoptotic Jurkat cells): did not affect
blebbing and nuclear fragmentation (apoptotic Jurkat cells; anti-Fas treated cells, 10 μM): inhibited
effect on binding of the D56R/S76R scFv (apoptotic Jurkat cells; anti-Fas treated cells, 10 μM): greatly reduced

CC[C@@]1(O)C(=O)OCc2c1cc1n(c2=O)Cc2cc3ccccc3nc2-1 [camptothecin]
cells observed to bind annexin V (Jurkat cells; 12 hr incubation with the apoptotic stimulus): Approximately 29%

COC(=O)C[C@H](NC(=O)[C@H](C)NC(=O)[C@@H](NC(=O)OCc1ccccc1)C(C)C)C(=O)CF [z-VAD(OMe)-FMK, z-Val-Ala-Asp(Ome)-fluoromethylketone] (Cbz-Val-Ala-Asp(OMe)-CH2F)
effect of pretreatment on binding of the D56R/S76R scFv (Jurkat cells; 20 μM, 2 hours pre-incubation): largely eliminated
effect of pretreatment on staining with annexin V (Jurkat cells; 20 μM, 2 hours pre-incubation): decreased to near-background levels
effect of pretreatment on staining of cells (apoptotic Jurkat cells; cells treated with camptothecin or anti-Fas antibody): greatly reduced
effect of pretreatment on annexin V and scFv binding (apoptotic Jurkat cells; cells treated with staurosporine): reduces both annexin V and scFv binding to background levels
